Laboratory results published in ChEMBL document CHEMBL4354827, “Discovery of Novel, Potent, Brain-Permeable, and Orally Efficacious Positive Allosteric Modulator of α7 Nicotinic Acetylcholine Receptor [4-(5-(4-Chlorophenyl)-4-methyl-2-propionylthiophen-3-yl)benzenesulfonamide]: Structure-Activity Relationship and Preclinical Characterization” (J Med Chem, 2020).

Legend:
[1] = Ratio of drug level in Sprague-Dawley rat brain to plasma at 3 mg/kg, po after 1 hr; format: ADME, organism-based; conditions: brain and plasma, read-out: BPR
[2] = Drug concentration in Sprague-Dawley rat plasma at 3 mg/kg, po after 1 hr; format: ADME, organism-based
[3] = Drug concentration in Sprague-Dawley rat brain at 3 mg/kg, po after 1 hr; format: ADME, organism-based; conditions: read-out: Drug uptake
[4] = Ratio of drug level in Swiss mouse brain to plasma at 40 mg/kg, sc after 30 mins by LC-MS analysis; format: ADME, organism-based; conditions: brain and plasma, read-out: BPR
[5] = Drug concentration in Swiss mouse plasma at 40 mg/kg, sc after 30 mins by LC-MS analysis; format: ADME, organism-based
[6] = Drug concentration in Swiss mouse brain at 40 mg/kg, sc after 30 mins by LC-MS analysis; format: ADME, organism-based; conditions: read-out: Drug uptake
Rattus norvegicus [7] = test: Improvement in social recognition time delay-induced Sprague-Dawley rat model of amnesia assessed as increase in reduction in social investigation time at 3 mg/kg, po administered as single dose prior to 1 hr training and measured after 30 mins (reference value: 0.39%); format: functional; set-up: scale not given: the % may be the effect or the level left
Rattus norvegicus [8] = test: Memory enhancement effect in scopolamine-induced Wistar rat model of amnesia assessed as exploration time for familiar object in retention trial at 0.15 mg/kg, po administered as single dose and measured on day 9 by novel object recognition test (reference value: 8.59 sec); format: functional
Rattus norvegicus [9] = test: Memory enhancement effect in time-delay induced Wistar rat model of amnesia assessed as exploration time for novel object at 3 mg/kg, po administered as single dose after acquisition trial by novel object recognition test (reference value: 12.81 sec); format: functional
Rattus norvegicus [10] = test: Memory enhancement effect in time-delay induced Wistar rat model of amnesia assessed as exploration time for object1 in acquisition trial at 3 mg/kg, po administered as single dose and measured on day 8 by novel object recognition test (reference value: 13.95 sec); format: functional
Rattus norvegicus [11] = test: Memory enhancement effect in scopolamine-induced Wistar rat model of amnesia assessed as exploration time for object1 in acquisition trial at 0.15 mg/kg, po administered as single dose and measured on day 8 by novel object recognition test (reference value: 16.11 sec); format: functional
Rattus norvegicus [12] = test: Improvement in social recognition scopolamine-induced Sprague-Dawley rat model of amnesia assessed as increase in reduction in social investigation time at 3 mg/kg, po administered as single dose prior to 1 hr training and measured after 30 mins (reference value: 9.81%); format: functional; set-up: scale not given: the % may be the effect or the level left
Rattus norvegicus [13] = test: Memory enhancement effect in scopolamine-induced Wistar rat model of amnesia assessed as exploration time for object1 in acquisition trial at 0.05 mg/kg, po for 7 days and measured on day 8 by novel object recognition test (reference value: 16.11 sec); format: functional
Rattus norvegicus [14] = test: Memory enhancement effect in time-delay induced Wistar rat model of amnesia assessed as exploration time for familiar object in retention trial at 0.05 mg/kg, po for 7 days and measured on day 8 by novel object recognition test (reference value: 10.20 sec); format: functional
Rattus norvegicus [15] = test: Memory enhancement effect in time-delay induced Wistar rat model of amnesia assessed as exploration time for novel object in retention trial at 0.05 mg/kg, po for 7 days and measured on day 8 by novel object recognition test (reference value: 15.37 sec); format: functional
Rattus norvegicus [16] = test: Memory enhancement effect in time-delay induced Wistar rat model of amnesia assessed as exploration time for object2 at 3 mg/kg, po administered as single dose after acquisition trial by novel object recognition test (reference value: 21.07 sec); format: functional
Rattus norvegicus [17] = test: Memory enhancement effect in time-delay induced Wistar rat model of amnesia assessed as exploration time for object2 in acquisition trial at 0.05 mg/kg, po for 7 days and measured on day 8 by novel object recognition test (reference value: 11.76 sec); format: functional
[18] = Drug concentration in Wistar rat plasma at 3 mg/kg, po after 2 hrs by LC-MS/MS analysis; format: ADME, organism-based
Rattus norvegicus [19] = test: Memory enhancement effect in scopolamine-induced Wistar rat model of amnesia assessed as exploration time for familiar object in retention trial at 0.05 mg/kg, po for 7 days and measured on day 8 by novel object recognition test (reference value: 8.59 sec); format: functional
[20] = Ratio of drug level in brain to plasma in Wistar rat at 3 mg/kg, po after 2 hrs by LC-MS/MS analysis; format: ADME, organism-based; conditions: brain and plasma, read-out: BPR
Rattus norvegicus [21] = test: Memory enhancement effect in scopolamine-induced Wistar rat model of amnesia assessed as exploration time for object2 in acquisition trial at 0.15 mg/kg, po administered as single dose and measured on day 8 by novel object recognition test (reference value: 15.63 sec); format: functional
Rattus norvegicus [22] = test: Memory enhancement effect in time-delay induced Wistar rat model of amnesia assessed as exploration time for familiar object in retention trial at 3 mg/kg, po administered as single dose and measured on day 9 by novel object recognition test (reference value: 13.05 sec); format: functional
Rattus norvegicus [23] = test: Improvement in social recognition time delay-induced Sprague-Dawley rat model of amnesia assessed as increase in reduction in social investigation time at 0.15 mg/kg, po for 7 days and measured on day 9 (reference value: -0.5%); format: functional; set-up: scale not given: the % may be the effect or the level left
Rattus norvegicus [24] = test: Memory enhancement effect in scopolamine-induced Wistar rat model of amnesia assessed as exploration time for object2 in acquisition trial at 0.05 mg/kg, po for 7 days and measured on day 8 by novel object recognition test (reference value: 15.63 sec); format: functional
Rattus norvegicus [25] = test: Memory enhancement effect in time-delay induced Wistar rat model of amnesia assessed as exploration time for object1 at 3 mg/kg, po administered as single dose after acquisition trial by novel object recognition test (reference value: 19.09 sec); format: functional
Rattus norvegicus [26] = test: Memory enhancement effect in scopolamine-induced Wistar rat model of amnesia assessed as increase in exploration time for novel object in retention trial at 0.15 mg/kg, po administered as single dose and measured on day 9 by novel object recognition test (reference value: 12.09 sec); format: functional
Rattus norvegicus [27] = test: Memory enhancement effect in time-delay induced Wistar rat model of amnesia assessed as increase in exploration time for novel object in retention trial at 3 mg/kg, po administered as single dose and measured on day 9 by novel object recognition test (reference value: 12.06 sec); format: functional
[28] = Drug level in Wistar rat brain at 3 mg/kg, po after 2 hrs by LC-MS/MS analysis; format: ADME, organism-based; conditions: read-out: Drug uptake
Rattus norvegicus [29] = test: Memory enhancement effect in time-delay induced Wistar rat model of amnesia assessed as exploration time for object2 in acquisition trial at 3 mg/kg, po administered as single dose and measured on day 8 by novel object recognition test (reference value: 16.33 sec); format: functional
Rattus norvegicus [30] = test: Memory enhancement effect in scopolamine-induced Wistar rat model of amnesia assessed as exploration time for novel object in retention trial at 0.05 mg/kg, po for 7 days and measured on day 8 by novel object recognition test (reference value: 12.09 sec); format: functional
Rattus norvegicus [31] = test: Memory enhancement effect in time-delay induced Wistar rat model of amnesia assessed as exploration time for familiar object at 3 mg/kg, po administered as single dose after acquisition trial by novel object recognition test (reference value: 10.6 sec); format: functional
Rattus norvegicus [32] = test: Memory enhancement effect in time-delay induced Wistar rat model of amnesia assessed as exploration time for object1 in acquisition trial at 0.05 mg/kg, po for 7 days and measured on day 8 by novel object recognition test (reference value: 13.73 sec); format: functional
Rattus norvegicus [33] = test: Improvement in social recognition scopolamine-induced Sprague-Dawley rat model of amnesia assessed as increase in reduction in social investigation time at 0.15 mg/kg, po for 7 days measured after 24 hrs (Rvb =6.59%); format: functional; set-up: scale not given: the % may be the effect or the level left
[34] = Ratio of drug level in rat brain to plasma at 10 mg/kg, ip by HPLC-LC/MS analysis; format: ADME, organism-based; conditions: brain and plasma, read-out: BPR
[35] = Drug level in rat plasma at 10 mg/kg, ip after 120 mins by HPLC-LC/MS analysis; format: ADME, organism-based
[36] = Drug level in Sprague-Dawley rat cerebrospinal fluid at 3 mg/kg, po; format: ADME, organism-based; conditions: in vivo
[37] = Drug level in DBA/2 mouse brain at 0.3 mg/kg, iv after 10 mins; format: ADME, organism-based; conditions: read-out: Drug uptake
[38] = Drug level in NSA mouse brain at 0.3 mg/kg, po after 120 to 150 mins; format: ADME, organism-based; conditions: in vivo, read-out: Drug uptake
[39] = Drug level in DBA/2 mouse brain at 0.3 mg/kg, iv after 90 mins; format: ADME, organism-based; conditions: read-out: Drug uptake

COc1cc(OC)c(NC(=O)Nc2cc(C)on2)cc1Cl gave a Kp at 1 h [1] of 1.18, a concentration at 1 h [2] of 43.1 ng/mL and a concentration at 1 h [3] of 50.8 ng/g.
OCc1sc(Nc2ccc(F)c(C(F)(F)F)c2)nc1-c1ccncc1 showed a Kp at 0.5 h [4] of 0.3, a concentration at 0.5 h [5] of 5920 ng/mL and a concentration at 0.5 h [6] of 1910 ng/g.
Work on CCC(=O)c1cc(-c2ccc(Cl)cc2)n(-c2ccc(S(N)(=O)=O)cc2)c1C yielded an Activity (Rattus norvegicus [7]) of 35.28%, a Time (Rattus norvegicus [8]) of 5.7 s and a Time (Rattus norvegicus [9]) of 14.61 s. The Time (Rattus norvegicus [10]) was 25.62 s, the Time (Rattus norvegicus [11]) was 14.7 s and the Activity (Rattus norvegicus [12]) was 50.67%. It also gave a Time (Rattus norvegicus [13]) of 14.7 s, a Time (Rattus norvegicus [14]) of 10.19 s and a Time (Rattus norvegicus [15]) of 14.16 s. The Time (Rattus norvegicus [16]) was 17.17 s, the Time (Rattus norvegicus [17]) was 12.59 s and the concentration at 2 h [18] was 700 to 1050 nM. It also gave a Time (Rattus norvegicus [19]) of 5.7 s, a Kp at 2 h [20] of 0.1 to 0.2 and a Time (Rattus norvegicus [21]) of 14.75 s. It also gave a Time (Rattus norvegicus [22]) of 11.47 s, an Activity (Rattus norvegicus [23]) of 65.75% and a Time (Rattus norvegicus [24]) of 14.75 s. For the same compound, the Time (Rattus norvegicus [25]) was 12.7 s, the Time (Rattus norvegicus [26]) was 16.33 s and the Time (Rattus norvegicus [27]) was 28.31 s. The concentration at 2 h [28] was 110 to 140 nM, the Time (Rattus norvegicus [29]) was 20.37 s and the Time (Rattus norvegicus [30]) was 16.33 s. The Time (Rattus norvegicus [31]) was 8.05 s, the Time (Rattus norvegicus [32]) was 11.58 s and the Activity (Rattus norvegicus [33]) was 31.8%.
Compound O=C(Nc1cc(Cl)ccc1O)Nc1cc(C(F)(F)F)ccc1Cl has a Kp [34] of 0.5 and a concentration at 2 h [35] of 172 ng/mL.
With COc1ccc(Cl)cc1C(=O)N[C@@H]1[C@@H](c2ccc(S(N)(=O)=O)cc2)C1(C)C the Drug uptake [36] was 12.1 ng/mL.
Compound Cc1cc(/C(=C/Nc2ccc(Cl)cc2)C(=O)Nc2ccc(Cl)cc2)on1 [AVL-3288] has a concentration at 10 min [37] of 1000 nM, a concentration [38] of 150 to 300 nM and a concentration at 1.5 h [39] of 300 nM.
